Experimental data published in patent US5652366A, “DI (1R)-(-)camphosulfonic acid) salt, preparation thereof and use thereof” (Rhone-Poulenc Rorer Pharmaceuticals Inc., priority 1995, dated 1997).
Like-named read-outs stand apart in the source and are kept apart here.

Legend:
[1] = tested on: spontaneously hypertensive rat (SHR); experiment: Oral antihypertensive activity in conscious spontaneously hypertensive rat (SHR); type: in vivo
Procedure: The oral antihypertensive activity of compounds of the invention were examined in conscious spontaneously hypertensive rats. The rats were anesthetized with sodium pentabarbatol (50 mg/kg i.p.). A telemetry transducer was implanted into the rats abdomen via midline incision. The cannula of the transducer was inserted into the abdomenal aorta to allow direct measurement of arterial pressure in the conscious SHR. The transducer was secured to the abdomenal wall. After recovery from surgery (minimum of seven days), the SHR were placed on a receiver plate and the transducer/transmitter was activated. Systolic, diastolic and mean arterial pressure and heart rate were recorded for 1.5 hours in the unrestrained conscious rat to establish a stable baseline. Each rat then received a single dose of the compound of the invention to be tested, or vehicle, and changes in arterial pressure and heart rate were monitored for 20 hours and recorded.

[2] = tested on: normotensive anesthetized rat; experiment: In vivo mean arterial pressure and heart rate in normotensive anesthetized rat; conditions: iv
Procedure: Normotensive rats were anesthetized with sodium pentobarbital (50 mg/kg, j.p.) and placed on a heated surgical table. Cannulas were inserted into the femoral artery and […] to allow the measurement of arterial pressure and to facilitate the intravenous administration of test compounds. The animals was allowed to equilibrate for 10 minutes after surgery. Mean arterial pressure was continuously measured and recorded and heart rate was monitored using the arterial pressure pulse to trigger a cardiotachometer. After baseline parameters were established and recorded, increasing doses (1, 3, 10, 30, 100, 300 and 1000 μg/kg) of the compound of the invention to be tested were administered intravenously. Maximal changes in the cardiovascular parameters were observed after each dose of the adenosine agonist. Only one compound was administered per rat.

swine coronary arteries = experiment: In vitro vasorelaxation in isolated swine coronary arteries (PGF2α-contracted rings); type: cell-based; conditions: Sus scrofa, Table II
Procedure: Swine coronary arteries were obtained from a local slaughter house, dissected carefully and cleaned of fat, blood and adhering tissue. Rings approximately 2-3 mm wide were cut and transferred to water-jacketed tissue baths (10 ml) filled with warm (37° C.), oxygenated (O2 /CO2 :95%/5%) Krebs-Henseleit buffer and mounted on L-shaped hooks between stainless steel rods and a force transducer. […] Rings were equilibrated for 90 minutes with frequent buffer changes at a resting tension of 5 g In order to assure optimal tension development, arterial rings were primed twice with 36 mM KCl and once with 10 μm. PGF2α, before being exposed to 3 μM PGF2α. […] Tension achieved with 3 μM PGF2α was considered .equivalent to 100%; all other values were expressed as a percentage of that maximum.

A1 adenosine receptor = molecular target: T1, A1 adenosine receptor (Rattus norvegicus, UniProt P25099); experiment: biochemical; conditions: rat whole brain membranes, 3H-CHA; Table II; read-out: Adenosine Receptor Binding Activity/IC50 (nM) A1
T1 sequence (P25099 1-326): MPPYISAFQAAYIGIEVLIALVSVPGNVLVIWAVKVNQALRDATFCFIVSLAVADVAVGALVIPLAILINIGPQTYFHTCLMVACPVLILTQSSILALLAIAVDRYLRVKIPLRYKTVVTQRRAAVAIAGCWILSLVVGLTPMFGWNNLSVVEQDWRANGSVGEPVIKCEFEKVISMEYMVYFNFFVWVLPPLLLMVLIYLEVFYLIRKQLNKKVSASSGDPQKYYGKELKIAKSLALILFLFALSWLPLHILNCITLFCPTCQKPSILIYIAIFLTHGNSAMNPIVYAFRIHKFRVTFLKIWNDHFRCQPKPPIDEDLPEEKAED
Procedure: Non-specific binding was assessed in the presence of 1 mM theophylline.
The assays were run in glass test tubes in duplicate at 25° C. Once the membranes were added, the tubes were vortexed and incubated at 25° C. for 60 minutes (A1 assay) or 90 minutes (A2 assay) on a rotary shaker. The assay tubes were vortexed halfway through the incubation and again near the end. The assays were terminated by rapid filtration through 2.4 cm GF/B filters using a Brandel Cell Harvestor. The test tubes were washed three times with cold 50 mM tris-HCl (pH 7.7 or 7.4), with filtration being completed within 15 seconds. The damp filter circles were placed in glass scintillation vials filled with 10 ml of Aquasol II (New England Nuclear). The vials were allowed to shake overnight on a rotary shaker and were placed into a liquid scintillation analyzer for two minute counts. IC50 values for receptor binding, i.e. the concentration at which a compound of the invention displaced the radiolabeled standard, were obtained using a curve-fitting computer program (RS/1, Bolt, Beranek and Newman, Boston, Mass.).

A2 adenosine receptor = A2 adenosine receptor (Rattus norvegicus, UniProt P30543); experiment: biochemical; conditions: rat brain striatum membranes, 3H-CGS 21680; Table II; read-out: Adenosine Receptor Binding Activity/IC50 (nM) A2
[3] = dose lowering heart rate by 25%, read-out: Blood Press/Heart Rate Anesthetized Rat HR/ED25
[4] = dose lowering mean arterial pressure by 25%, read-out: Blood Press/Heart Rate Anesthetized Rat MAP/ED25
[5] = 50% reduction in tension, 3 μM PGF2α, read-out: Vasorelaxation in Swine Coronary Artery/IC50

Chain of A2 adenosine receptor (P30543 whole entry): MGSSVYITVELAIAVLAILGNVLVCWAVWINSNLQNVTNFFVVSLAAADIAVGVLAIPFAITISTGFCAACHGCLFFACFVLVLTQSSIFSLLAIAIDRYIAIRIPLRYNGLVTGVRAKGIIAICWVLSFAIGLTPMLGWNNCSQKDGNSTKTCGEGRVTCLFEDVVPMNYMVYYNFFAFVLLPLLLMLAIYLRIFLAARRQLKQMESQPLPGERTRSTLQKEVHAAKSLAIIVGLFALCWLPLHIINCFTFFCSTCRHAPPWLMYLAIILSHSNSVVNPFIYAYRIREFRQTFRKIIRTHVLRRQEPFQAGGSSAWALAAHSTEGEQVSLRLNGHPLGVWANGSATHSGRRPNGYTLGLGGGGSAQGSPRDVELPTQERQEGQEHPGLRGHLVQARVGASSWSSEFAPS

Row | Structure (SMILES) | EC50 (swine coronary arteries; [5]) [µM] | IC50 (A1 adenosine receptor) [nM] | IC50 (A2 adenosine receptor) [nM] | ED25 [2, 3] [µg/kg] | ED25 [2, 4] [µg/kg] | other results
1 | CCNC(=O)[C@H]1C[C@@H](n2cnc3c(NCCc4scnc4C)ncnc32)[C@H](O)[C@@H]1O (relative stereo) [Example 24, (±)-N^6-[2-(4"-methyl-5"-thiazolyl)thyl]carbocyclic adenosine-5'-N-ethyl carboxamide] |  |  |  | > 10 | 6 | SHR MAP/% ([1]; 5 mg/kg, D = decrease): 17%; SHR HR/% ([1]; 5 mg/kg, I = increase): 6%
2 | CCNC(=O)[C@H]1C[C@@H](n2cnc3c(NCCNc4nc5ccccc5s4)ncnc32)[C@H](O)[C@@H]1O (relative stereo) [Example 29, (±)-N^6-[2-(2'-aminobenzothia-zolyl)ethyl]carbocyclic adenosine-5'-N-ethyl carboxamide] | 22 | 35.5 | > 1000 | 31 | 16 | SHR HR/% ([1]; 5 mg/kg, D = decrease): 12%; SHR MAP/% ([1]; 5 mg/kg, D = decrease): 18%
3 | CCNC(=O)[C@H]1C[C@@H](n2cnc3c(N[C@H](C)Cc4ccc(Cl)s4)ncnc32)[C@@H]2OC(C)(C)O[C@@H]21 [6(1), (-)-[2S-[2α,3α-dimethylmethylenedioxy-4-β-[N6-[2-(5-chloro-2-thienyl)-(1R)-1-methylethyl]amino]-9-adenyl]cyclopentane]-1-β-N-ethylcarboxamide] | 19.1 | > 1000 | > 1000 |  |  | 
4 | OC[C@H]1O[C@@H](n2cnc3c(NCCNc4nc5ccccc5s4)ncnc32)[C@H](O)[C@@H]1O [Example 9, N^6-[2-(2'-aminobenzothia-zolyl)ethyl]adenosine] | 11.9 | 4 | 1000 | 4 | 5 | 
5 | CCOc1ccc2nc(SCCNc3ncnc4c3ncn4[C@@H]3O[C@H](CO)[C@@H](O)[C@H]3O)sc2c1 [Example 11] |  | 7.4 | > 1000 |  |  | 
6 | Cc1nc(CCNc2ncnc3c2ncn3[C@@H]2O[C@H](CO)[C@@H](O)[C@H]2O)cs1 [Example 14, N^6-[2-(2'-methyl-4'-thiazolyl)-ethyl]adenosine] |  | 79.4 | > 1000 |  |  | 
7 | C[C@H](Cc1cc2ccccc2s1)Nc1ncnc2c1ncn2[C@@H]1O[C@H](CO)[C@@H](O)[C@H]1O [Example 15, N^6-[(R)-1-methyl-2-(2'benzo-[b]-thiophenyl)ethyl]adenosine] |  |  | 1000 | 1.4 | 1.5 | EC50 (swine coronary arteries; read-out: Vasorelaxation in Swine Coronary Artery/IC50 (μM), 50% reduction in tension, 3 μM PGF2α): 2.45 µM
8 | CC(C)(Cc1cccs1)Nc1ncnc2c1ncn2[C@@H]1O[C@H](CO)[C@@H](O)[C@H]1O [Example 17, N^6-[2-(1,1-dimethyl-2'-thiophenyl)ethyl]adenosine] | 18.8 | 67.6 | 5250 |  |  | 
9 | CCNC(=O)[C@H]1O[C@@H](n2cnc3c(NCCNc4nc5ccccc5s4)ncnc32)[C@H](O)[C@@H]1O [Example 23] | 4.4 | 0.32 | 891 | 7 | 6 | 
10 | C[C@H](Cc1sccc1Cl)Nc1ncnc2c1ncn2[C@@H]1O[C@H](CO)[C@@H](O)[C@H]1O [Example 32, N^6-[1-methyl-2-(3-chlorothien-2-yl)ethyl]adenosine] |  | 0.049 |  |  |  | 

Further lines, with some results ahead:

Row | EC50 (swine coronary arteries; [5]) [µM] | IC50 (A1 adenosine receptor) [nM] | IC50 (A2 adenosine receptor) [nM] | Structure (SMILES) | ED25 [2, 3] [µg/kg] | ED25 [2, 4] [µg/kg] | other results
11 | 0.73 |  |  | OC[C@H]1O[C@@H](n2cnc3c(N[C@@H]4CC=CC[C@H]4c4cccs4)ncnc32)[C@H](O)[C@@H]1O (relative stereo) [Example 4, N6-[trans-2-(thiophen-2-yl)cyclohex-4-en-yl]adenosine] | 19 | 13 | SHR HR/% ([1]; 5 mg/kg, D = decrease): 20%; SHR MAP/% ([1]; 5 mg/kg, D = decrease): 28%
12 | 4 |  |  | OC[C@H]1O[C@@H](n2cnc3c(N[C@@H]4CCCC[C@H]4c4cccs4)ncnc32)[C@H](O)[C@@H]1O (relative stereo) [Example 7, N^6-[trans-2-(thiophen-2-yl)-cyclohex-1-yl]adenosine] | 18 | 6 | SHR HR/% ([1]; 5 mg/kg, D = decrease): 22%; SHR MAP/% ([1]; 5 mg/kg, D = decrease): 45%
13 | 0.043 |  |  | CCNC(=O)[C@H]1C[C@@H](n2cnc3c(N[C@H](C)Cc4cccs4)ncnc32)[C@H](O)[C@@H]1O (single isomer, unassigned) [Example 27] |  |  | SHR MAP/% ([1]; 1 mg/kg, D = decrease): 27%; SHR HR/% ([1]; 1 mg/kg, I = increase): 1%
14 | 0.5 | 23 | 224 | Cc1ncsc1CCNc1ncnc2c1ncn2[C@@H]1O[C@H](CO)[C@@H](O)[C@H]1O [Example 12, N^6-[2-(4'-methylthiazol-5'-yl)-ethyl]adenosine] | 17 | 4 | 
15 | 0.24 | 41 | 191 | OC[C@H]1O[C@@H](n2cnc3c(NCCc4nccs4)ncnc32)[C@H](O)[C@@H]1O [Example 13, N^6-[2-(2'-thiazolyl)ethyl]-adenosine] | > 10 | 3 | 
16 | 0.46 | 166 | 52 | Cc1csc(CNc2ncnc3c2ncn3[C@@H]2O[C@H](CO)[C@@H](O)[C@H]2O)n1 [Example 18, N^6-[2-(4'-methyl-2'-thiazolyl)-methyl]adenosine] | > 10 | 2 | 
17 | 0.75 | 36 | 1000 | OC[C@H]1O[C@@H](n2cnc3c(NCc4nc(-c5ccccc5)cs4)ncnc32)[C@H](O)[C@@H]1O [Example 19] |  |  | 
18 | 0.072 | 1.6 | 23 | CCNC(=O)[C@H]1C[C@@H](n2cnc3c(N[C@H](CC)Cc4sccc4Cl)ncnc32)[C@H](O)[C@@H]1O [Example 34] |  |  | 
19 | 0.493 | 8.8 | 43.4 | CCNC(=O)[C@H]1C[C@@H](n2cnc3c(N[C@H](C)Cc4ccc(Cl)s4)ccnc32)[C@H](O)[C@@H]1O [Example 36, [1S-[1α,2β,3β,4α(S*)]]-4-[7-[[2-(5-chloro-2-thienyl)-1-methylethyl]amino]-3 H-imidazo[4,5-b]pyridin-3-yl]-N-ethyl-2,3-dihydroxycyclopentanecarboxamide] |  |  | 
20 | 0.316 | 55 | 331 | CCNC(=O)[C@H]1C[C@@H](n2cnc3c(N[C@H](C)Cc4ccc(Cl)s4)ncnc32)[C@@H]2OC(=O)O[C@@H]21 [Example 44, (2S)-2α,3α-dihydroxy-4β-[N6-[2-(5-chloro-2-thienyl)-(1R)-1-methylethyl]amino-9-adenyl]cyclopentane-1β-N-ethylcarboxamide-2,3-carbonate] |  |  | 
